Assay results: patent publication US8742078B2, “Antibacterial 4,6-substituted 6′, 6″ and 1 modified aminoglycoside analogs” (Isis Pharmaceuticals, Inc., priority 2008, dated 2014)

Assays:
P. aeruginosa 29248 = test: MIC assay, P. aeruginosa 29248; format: cell-based; design: unit not given here; conditions: range: complete growth inhibition at higher, viable cells at lower concentration; 20-24 hours at 37° C.
Method: (§1) The MIC assays are carried out in 150 μL volume in duplicate in 96-well clear flat-bottom plates. The bacterial suspension from an overnight culture growth in appropriate medium is added to a solution of test compound in 2.5% DMSO in water. Final bacterial inoculum is approximately 10^2-10^3 CFU/well. The percentage growth of the bacteria in test wells relative to that observed for control wells containing no compound is determined by measuring absorbance at 595 nm (A595) after 20-24 hours at 37° C. The MIC is determined as a range of concentration where complete inhibition of growth is observed at the higher concentration and bacterial cells are viable at the lower concentration. Both ampicillin and tetracycline are used as antibiotic positive controls in each screening assay. Both ampicillin and tetracycline are used as antibiotic-positive controls in each screening assay for S. pyogenes, E. coli imp-, E. coli, S. aureus, E. faecalis, K. pneumoniae and P. vulgaris. Ciprofloxacin is used as an antibiotic positive control in each screening assay for P. aeruginosa.

P. aeruginosa 27853 = test: MIC assay, P. aeruginosa 27853; format: cell-based; design: unit not given here; conditions: range: complete growth inhibition at higher, viable cells at lower concentration; 20-24 hours at 37° C.
Method: as §1

Compound: NCC[C@H](O)C(=O)NC1CC(N)C(OC2OC(CN)C(O)C(O)C2O)C(O)C1OC1OC(CNC2CCCCC2)C(O)C(N)C1O (stereo partly shown) [IBIS00561976, 6″-deoxy-6″-cyclohexylamino-N-1-(4-amino-2-S-hydroxybutyryl)kanamycin A]
- MIC P aeruginosa 29248 (P. aeruginosa 29248): 5-10
- MIC P aeruginosa 27853 (P. aeruginosa 27853): >40

Compound: CCCNC[C@H]1O[C@H](O[C@@H]2[C@@H](O)[C@H](O[C@H]3O[C@H](CN)[C@@H](O)[C@H](O)[C@H]3O)[C@@H](N)C[C@H]2NC(=O)[C@@H](O)CCN)[C@H](O)[C@@H](N)[C@@H]1O [IBIS00561982, 6″-deoxy-6″-propylamino-N-1-(4-amino-2-S-hydroxybutyryl)kanamycin A]
- MIC P aeruginosa 29248 (P. aeruginosa 29248): 2.5-5.0
- MIC P aeruginosa 27853 (P. aeruginosa 27853): 5.0-10.0

Compound: NC[C@H]1O[C@H](O[C@H]2[C@H](O)[C@@H](O[C@H]3O[C@H](CO)[C@@H](O)[C@H](N)[C@H]3O)[C@H](N)C[C@@H]2N)[C@H](O)[C@@H](O)[C@@H]1O [IBIS00262400, Kanamycin A, reference compound]
- MIC P aeruginosa 29248 (P. aeruginosa 29248): 2.5-5
- MIC P aeruginosa 27853 (P. aeruginosa 27853): 1.25-2.5

Compound: NCC[C@H](O)C(=O)N[C@@H]1C[C@H](N)[C@@H](O[C@H]2O[C@H](CN)[C@@H](O)[C@H](O)[C@H]2O)[C@H](O)[C@H]1O[C@H]1O[C@H](CO)[C@@H](O)[C@H](N)[C@H]1O [IBIS00404962, Amikacin, reference compound]
- MIC P aeruginosa 29248 (P. aeruginosa 29248): <0.625
- MIC P aeruginosa 27853 (P. aeruginosa 27853): 1.25-2.5

Compound: [N-]=[N+]=NC[C@H]1O[C@H](O[C@@H]2[C@@H](O)[C@H](O[C@H]3O[C@H](CN)[C@@H](O)[C@H](O)[C@H]3O)[C@@H](N)C[C@H]2NC(=O)[C@@H](O)CCN)[C@H](O)[C@@H](N)[C@@H]1O [IBIS00561980, 6″-deoxy-6″-azido-N-1-(4-amino-2-S-hydroxybutyryl)kanamycin A]
- MIC P aeruginosa 29248 (P. aeruginosa 29248): 0.625-1.25
- MIC P aeruginosa 27853 (P. aeruginosa 27853): 2.5-5.0

Compound: CN(C)CC1OC(OC2C(N)CC(NC(=O)[C@@H](O)CCN)C(OC3OC(CO)C(O)C(N)C3O)C2O)C(O)C(O)C1O (stereo partly shown) [IBIS00561961, 6′-N,N-Dimethyl-N-1-(4-amino-2-S-hydroxybutyryl)kanamycin A]
- MIC P aeruginosa 29248 (P. aeruginosa 29248): >40
- MIC P aeruginosa 27853 (P. aeruginosa 27853): 10-20

Compound: 6″-deoxy-6″-phenethylamino-N-1-(4-amino-2-S-hydroxybutyryl)kanamycin A [IBIS00561977]
- MIC P aeruginosa 29248 (P. aeruginosa 29248): 5-10
- MIC P aeruginosa 27853 (P. aeruginosa 27853): 10-20

Compound: CC(C)NC[C@H]1O[C@H](O[C@@H]2[C@@H](O)[C@H](O[C@H]3O[C@H](CN)[C@@H](O)[C@H](O)[C@H]3O)[C@@H](N)C[C@H]2NC(=O)[C@@H](O)CCN)[C@H](O)[C@@H](N)[C@@H]1O [IBIS00561975, 6″-deoxy-6″-isopropylamino-N-1-(4-amino-2-S-hydroxybutyryl)kanamycin A]
- MIC P aeruginosa 29248 (P. aeruginosa 29248): 10-20
- MIC P aeruginosa 27853 (P. aeruginosa 27853): 10-20

Compound: NCC[C@H](O)C(=O)N[C@@H]1C[C@H](N)[C@@H](O[C@H]2O[C@H](CNCCCc3ccccc3)[C@@H](O)[C@H](O)[C@H]2O)[C@H](O)[C@H]1O[C@H]1O[C@H](CO)[C@@H](O)[C@H](N)[C@H]1O [IBIS00561962, 6′-N-Phenpropylamino-N-1-(4-amino-2-S-hydroxybutyryl)kanamycin A]
- MIC P aeruginosa 29248 (P. aeruginosa 29248): 2.5-5.0
- MIC P aeruginosa 27853 (P. aeruginosa 27853): 2.5-5.0

Compound: CNC[C@H]1O[C@H](O[C@@H]2[C@@H](O)[C@H](O[C@H]3O[C@H](CN)[C@@H](O)[C@H](O)[C@H]3O)[C@@H](N)C[C@H]2NC(=O)[C@@H](O)CCN)[C@H](O)[C@@H](N)[C@@H]1O [IBIS00561974, 6″-deoxy-6″-methylamino-N-1-(4-amino-2-S-hydroxybutyryl)kanamycin A]
- MIC P aeruginosa 29248 (P. aeruginosa 29248): 0.625-1.25
- MIC P aeruginosa 27853 (P. aeruginosa 27853): 2.5-5.0

Compound: NCC[C@H](O)C(=O)N[C@@H]1C[C@H](N)[C@@H](O[C@H]2O[C@H](CN)[C@@H](O)[C@H](O)[C@H]2O)[C@H](O)[C@H]1O[C@H]1O[C@H](CNCCNCc2ccccc2)[C@@H](O)[C@H](N)[C@H]1O [IBIS00561984, 6″-deoxy-6″-benzylaminoethylamino-N-1-(4-amino-2-S-hydroxybutyryl)kanamycin A]
- MIC P aeruginosa 29248 (P. aeruginosa 29248): 5.0-10.0
- MIC P aeruginosa 27853 (P. aeruginosa 27853): 5.0-10.0

Compound: CC(C)CNCC1OC(OC2C(N)CC(NC(=O)[C@@H](O)CCN)C(OC3OC(CO)C(O)C(N)C3O)C2O)C(O)C(O)C1O (stereo partly shown) [IBIS00561963, 6′-N-Isobutyl-N-1-(4-amino-2-S-hydroxybutyryl)kanamycin A]
- MIC P aeruginosa 29248 (P. aeruginosa 29248): >40
- MIC P aeruginosa 27853 (P. aeruginosa 27853): 10-20

Compound: CN(C)CCNCC1OC(OC2C(NC(=O)C(O)CCN)CC(N)C(OC3OC(CN)C(O)C(O)C3O)C2O)C(O)C(N)C1O (stereo not shown) [IBIS00561983, 6″-deoxy-6″-dimethylaminoethylamino-N-1-(4-amino-2-S-hydroxybutyryl)kanamycin A]
- MIC P aeruginosa 29248 (P. aeruginosa 29248): 1.25-2.5
- MIC P aeruginosa 27853 (P. aeruginosa 27853): 1.25-2.5

Compound: NCC[C@H](O)C(=O)N[C@@H]1C[C@H](N)[C@@H](O[C@H]2O[C@H](CNCCc3ccccc3)[C@@H](O)[C@H](O)[C@H]2O)[C@H](O)[C@H]1O[C@H]1O[C@H](CO)[C@@H](O)[C@H](N)[C@H]1O [IBIS00561960, 6′-N-Phenethylamino-N-1-(4-amino-2-S-hydroxybutyryl)kanamycin A]
- MIC P aeruginosa 29248 (P. aeruginosa 29248): 5-10
- MIC P aeruginosa 27853 (P. aeruginosa 27853): 2.5-5.0
